Experiments:
Experiment in all cases: relative viability (nuclei count vs DMSO), 5 days (fraction); higher = more cells survive
NCI-H2347 = test system: NCI-H2347
Outline: (§1)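 Lung cancer cell lines in 1536-well plates were dosed by pin tool the day after seeding, either with one drug alone or with a fixed anchor-drug dose plus five library-drug doses (not always all listed) in √10 steps. After 5 days, cells were fixed and their nuclei stained in one step (final 0.05% Triton X-100, 1% formaldehyde, 1 ug/ml Hoechst), then counted on 4× images. Relative viability is the nuclei count in treated wells divided by that in vehicle wells. Values are medians of duplicate plates.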

SK-MES-1 = test system: SK-MES-1
Outline: as §1

NCI-H1563 = test system: NCI-H1563
Outline: as §1

NCI-H661 = test system: NCI-H661
Outline: as §1

NCI-H322M = test system: NCI-H322M
Outline: as §1

NCI-H3122 = test system: NCI-H3122
Outline: as §1

NCI-H1651 = test system: NCI-H1651
Outline: as §1

PC-14 = test system: PC-14
Outline: as §1

NCI-H727 = test system: NCI-H727
Outline: as §1

NCI-H596 = test system: NCI-H596
Outline: as §1

RERF-LC-KJ = test system: RERF-LC-KJ
Outline: as §1

NCI-H1755 = test system: NCI-H1755
Outline: as §1

NCI-H1355 = test system: NCI-H1355
Outline: as §1

NCI-H1915 = test system: NCI-H1915
Outline: as §1

NCI-H1792 = test system: NCI-H1792
Outline: as §1

NCI-H520 = test system: NCI-H520
Outline: as §1

LXF-289 = test system: LXF-289
Outline: as §1

NCI-H460 = test system: NCI-H460
Outline: as §1

In the case of `CCN(CC)CCCCNc1ncc2cc(-c3cc(OC)cc(OC)c3)c(NC(=O)NC(C)(C)C)nc2n1` + CS(=O)(=O)CCNCc1ccc(-c2ccc3ncnc(Nc4ccc(OCc5cccc(F)c5)c(Cl)c4)c3c2)o1 [Lapatinib] (partner 2 µM), the relative viability (NCI-H2347; first compound 0.01 µM) is reported as 0.923, the relative viability (NCI-H2347; first compound 0.03162 µM) is reported as 0.79 and the relative viability (NCI-H2347; first compound 0.1 µM) is reported as 1.06. The relative viability (NCI-H2347; first compound 0.3162 µM) was 0.878, the relative viability (NCI-H2347; first compound 1 µM) was 0.931 and the relative viability (SK-MES-1; first compound 0.01 µM) was 0.518. It also gave a relative viability (SK-MES-1; first compound 0.03162 µM) of 0.456, a relative viability (SK-MES-1; first compound 0.1 µM) of 0.542 and a relative viability (SK-MES-1; first compound 0.3162 µM) of 0.455. The relative viability (SK-MES-1; first compound 1 µM) was 0.354, the relative viability (NCI-H1563; first compound 0.01 µM) was 0.884 and the relative viability (NCI-H1563; first compound 0.03162 µM) was 0.895. The relative viability (NCI-H1563; first compound 0.1 µM) was 0.849, the relative viability (NCI-H1563; first compound 0.3162 µM) was 0.792 and the relative viability (NCI-H1563; first compound 1 µM) was 0.621. It also gave a relative viability (NCI-H661; first compound 0.01 µM) of 0.569, a relative viability (NCI-H661; first compound 0.03162 µM) of 0.457 and a relative viability (NCI-H661; first compound 0.1 µM) of 0.432. For the same compound, the relative viability (NCI-H661; first compound 0.3162 µM) was 0.502, the relative viability (NCI-H661; first compound 1 µM) was 0.493 and the relative viability (NCI-H322M; first compound 0.01 µM) was 0.549. The relative viability (NCI-H322M; first compound 0.03162 µM) was 0.584, the relative viability (NCI-H322M; first compound 0.1 µM) was 0.598 and the relative viability (NCI-H322M; first compound 0.3162 µM) was 0.619. The relative viability (NCI-H322M; first compound 1 µM) was 0.528, the relative viability (NCI-H3122; first compound 0.01 µM) was 0.997 and the relative viability (NCI-H3122; first compound 0.03162 µM) was 1.04. It also gave a relative viability (NCI-H3122; first compound 0.1 µM) of 1.16, a relative viability (NCI-H3122; first compound 0.3162 µM) of 1.07 and a relative viability (NCI-H3122; first compound 1 µM) of 1. For the same compound, the relative viability (NCI-H1651; first compound 0.01 µM) was 0.896, the relative viability (NCI-H1651; first compound 0.03162 µM) was 1.03 and the relative viability (NCI-H1651; first compound 0.1 µM) was 1.18. The relative viability (NCI-H1651; first compound 0.3162 µM) was 0.844, the relative viability (NCI-H1651; first compound 1 µM) was 0.554 and the relative viability (PC-14; first compound 0.01 µM) was 0.318. For the same compound, the relative viability (PC-14; first compound 0.03162 µM) was 0.373, the relative viability (PC-14; first compound 0.1 µM) was 0.391 and the relative viability (PC-14; first compound 0.3162 µM) was 0.362. For the same compound, the relative viability (PC-14; first compound 1 µM) was 0.237, the relative viability (NCI-H727; first compound 0.01 µM) was 0.705 and the relative viability (NCI-H727; first compound 0.03162 µM) was 0.743. The relative viability (NCI-H727; first compound 0.1 µM) was 0.944, the relative viability (NCI-H727; first compound 0.3162 µM) was 0.967 and the relative viability (NCI-H727; first compound 1 µM) was 1.08. For the same compound, the relative viability (NCI-H596; first compound 0.01 µM) was 0.967, the relative viability (NCI-H596; first compound 0.03162 µM) was 1.04 and the relative viability (NCI-H596; first compound 0.1 µM) was 1.11. The relative viability (NCI-H596; first compound 0.3162 µM) was 0.977, the relative viability (NCI-H596; first compound 1 µM) was 0.854 and the relative viability (RERF-LC-KJ; first compound 0.01 µM) was 0.854. For the same compound, the relative viability (RERF-LC-KJ; first compound 0.03162 µM) was 0.893, the relative viability (RERF-LC-KJ; first compound 0.1 µM) was 0.907 and the relative viability (RERF-LC-KJ; first compound 0.3162 µM) was 0.949. It also gave a relative viability (RERF-LC-KJ; first compound 1 µM) of 0.879, a relative viability (NCI-H1755; first compound 0.01 µM) of 1.12 and a relative viability (NCI-H1755; first compound 0.03162 µM) of 1.06. The relative viability (NCI-H1755; first compound 0.1 µM) was 1.04, the relative viability (NCI-H1755; first compound 0.3162 µM) was 1.16 and the relative viability (NCI-H1755; first compound 1 µM) was 0.793. For the same compound, the relative viability (NCI-H1355; first compound 0.01 µM) was 1, the relative viability (NCI-H1355; first compound 0.03162 µM) was 0.897 and the relative viability (NCI-H1355; first compound 0.1 µM) was 1.2. For the same compound, the relative viability (NCI-H1355; first compound 0.3162 µM) was 1.19, the relative viability (NCI-H1355; first compound 1 µM) was 0.924 and the relative viability (NCI-H1915; first compound 0.01 µM) was 1.1. The relative viability (NCI-H1915; first compound 0.03162 µM) was 1.03, the relative viability (NCI-H1915; first compound 0.1 µM) was 0.775 and the relative viability (NCI-H1915; first compound 0.3162 µM) was 1.1. It also gave a relative viability (NCI-H1915; first compound 1 µM) of 0.971, a relative viability (NCI-H1792; first compound 0.01 µM) of 0.97 and a relative viability (NCI-H1792; first compound 0.03162 µM) of 0.886. The relative viability (NCI-H1792; first compound 0.1 µM) was 1.21, the relative viability (NCI-H1792; first compound 0.3162 µM) was 1.64 and the relative viability (NCI-H1792; first compound 1 µM) was 0.433. The relative viability (NCI-H520; first compound 0.01 µM) was 1.07, the relative viability (NCI-H520; first compound 0.03162 µM) was 0.946 and the relative viability (NCI-H520; first compound 0.1 µM) was 1.11. For the same compound, the relative viability (NCI-H520; first compound 0.3162 µM) was 0.792, the relative viability (NCI-H520; first compound 1 µM) was 0.308 and the relative viability (LXF-289; first compound 0.01 µM) was 0.893. It also gave a relative viability (LXF-289; first compound 0.03162 µM) of 0.944, a relative viability (LXF-289; first compound 0.1 µM) of 0.941 and a relative viability (LXF-289; first compound 0.3162 µM) of 0.865. The relative viability (LXF-289; first compound 1 µM) was 0.599, the relative viability (NCI-H460; first compound 0.01 µM) was 1.27 and the relative viability (NCI-H460; first compound 0.03162 µM) was 1.18. The relative viability (NCI-H460; first compound 0.1 µM) was 0.985, the relative viability (NCI-H460; first compound 0.3162 µM) was 1.53 and the relative viability (NCI-H460; first compound 1 µM) was 0.532.

From the supplement of paper PMC10307832
